Measured values taken from ChEMBL document CHEMBL1221250, “Modification at the acidic domain of RXR agonists has little effect on permissive RXR-heterodimer activation” (Bioorg Med Chem Lett, 2010).
Active and inactive are the calls of the source. The calls are words filed in the database; no cut-off is given here.

How the values were obtained:
[1] = target: T1, Retinoic acid receptor alpha (Homo sapiens) (UniProt P10276); experiment: Transactivation of RARalpha in human COS7 cells at 10 uM by luciferase reporter gene assay; format: cell-based; details: COS-7
T1 sequence (whole entry): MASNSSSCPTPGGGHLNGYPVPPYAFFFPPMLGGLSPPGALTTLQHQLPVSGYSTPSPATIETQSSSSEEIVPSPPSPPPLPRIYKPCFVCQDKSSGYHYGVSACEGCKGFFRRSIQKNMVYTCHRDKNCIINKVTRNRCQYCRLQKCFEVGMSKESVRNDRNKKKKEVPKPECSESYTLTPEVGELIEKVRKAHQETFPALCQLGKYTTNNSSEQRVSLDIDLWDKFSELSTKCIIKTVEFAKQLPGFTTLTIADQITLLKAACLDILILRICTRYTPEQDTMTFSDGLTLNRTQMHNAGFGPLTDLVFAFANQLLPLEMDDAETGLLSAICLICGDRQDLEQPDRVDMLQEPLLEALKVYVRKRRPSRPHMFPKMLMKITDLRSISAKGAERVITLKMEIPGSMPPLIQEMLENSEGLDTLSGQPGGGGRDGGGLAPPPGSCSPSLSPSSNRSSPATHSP

[2] = target: T2, Retinoic acid receptor RXR-alpha (Homo sapiens) (UniProt P19793); experiment: Transactivation of RXRalpha in human COS7 cells at 10 uM by luciferase reporter gene assay; format: cell-based; details: COS-7
T2 sequence (whole entry): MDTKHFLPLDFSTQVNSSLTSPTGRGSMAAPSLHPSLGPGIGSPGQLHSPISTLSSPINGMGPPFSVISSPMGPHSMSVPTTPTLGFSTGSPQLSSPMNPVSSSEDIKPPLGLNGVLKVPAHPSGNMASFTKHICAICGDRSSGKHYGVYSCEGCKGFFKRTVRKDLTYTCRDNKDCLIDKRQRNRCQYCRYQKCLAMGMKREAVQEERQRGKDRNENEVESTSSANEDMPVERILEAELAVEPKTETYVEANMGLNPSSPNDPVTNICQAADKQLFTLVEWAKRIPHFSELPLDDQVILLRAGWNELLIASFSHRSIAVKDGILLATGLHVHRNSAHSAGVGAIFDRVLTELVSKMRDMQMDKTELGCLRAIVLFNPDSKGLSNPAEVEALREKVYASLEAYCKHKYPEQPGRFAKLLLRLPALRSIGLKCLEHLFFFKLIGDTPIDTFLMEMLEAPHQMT

[3] = target: T3, Peroxisome proliferator-activated receptor gamma (Homo sapiens) (UniProt P37231); experiment: Transactivation of PPARgamma
T3 sequence (whole entry): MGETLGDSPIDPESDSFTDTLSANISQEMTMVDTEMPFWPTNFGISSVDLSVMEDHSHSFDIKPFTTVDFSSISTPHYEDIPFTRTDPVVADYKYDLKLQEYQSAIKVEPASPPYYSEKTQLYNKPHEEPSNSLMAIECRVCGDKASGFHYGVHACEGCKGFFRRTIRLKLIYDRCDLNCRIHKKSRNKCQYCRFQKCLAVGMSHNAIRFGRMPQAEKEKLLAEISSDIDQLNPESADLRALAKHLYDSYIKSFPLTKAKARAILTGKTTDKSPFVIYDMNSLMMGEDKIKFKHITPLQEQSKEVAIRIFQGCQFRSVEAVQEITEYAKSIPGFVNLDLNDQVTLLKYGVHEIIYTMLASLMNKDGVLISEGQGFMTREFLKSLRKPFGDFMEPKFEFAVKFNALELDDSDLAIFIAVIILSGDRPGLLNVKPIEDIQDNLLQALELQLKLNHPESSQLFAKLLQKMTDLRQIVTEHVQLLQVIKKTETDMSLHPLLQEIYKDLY

[4] = target: RXR alpha/PPAR gamma (Homo sapiens) (UniProt P37231+P19793); experiment: Transactivation of PPARgamma/RXRalpha heterodimer; format: protein-complex assay
[5] = target: Retinoic acid receptor RXR-alpha/oxysterols receptor LXR-alpha (Homo sapiens) (UniProt P19793+Q13133); experiment: Transactivation of LXRalpha/RXRalpha; format: protein-complex assay
[6] = target: T4, Oxysterols receptor LXR-alpha (Homo sapiens) (UniProt Q13133); experiment: Transactivation of LXRalpha
T4 sequence (whole entry): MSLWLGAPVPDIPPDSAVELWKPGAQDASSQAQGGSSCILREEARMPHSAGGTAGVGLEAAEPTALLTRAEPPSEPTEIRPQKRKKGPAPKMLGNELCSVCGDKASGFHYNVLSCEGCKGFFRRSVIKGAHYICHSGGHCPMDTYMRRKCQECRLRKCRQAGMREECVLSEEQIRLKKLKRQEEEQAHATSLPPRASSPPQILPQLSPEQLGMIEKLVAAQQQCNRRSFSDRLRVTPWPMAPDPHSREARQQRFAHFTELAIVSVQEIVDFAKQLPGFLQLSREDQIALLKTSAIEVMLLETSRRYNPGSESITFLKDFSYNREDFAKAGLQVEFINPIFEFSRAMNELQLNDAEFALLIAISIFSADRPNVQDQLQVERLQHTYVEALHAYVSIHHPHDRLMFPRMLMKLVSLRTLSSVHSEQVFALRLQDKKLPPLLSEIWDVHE

[7] = target: T5, Retinoic acid receptor RXR-alpha (Homo sapiens, UniProt P19793); experiment: Agonist activity at RXRalpha by luciferase reporter gene assay; format: functional
T5 sequence (P19793 whole entry): T2 sequence (whole entry)

Row | Activity [1] | Activity [2] | Activity [3] | Activity [4] | Activity [5] | Activity [6] | EC50 [7] | Structure (SMILES)
1 | inactive | inactive |  |  |  |  |  | CCN(c1ccc2c(c1)C(C)(C)CCC2(C)C)c1ccc(P(=O)(O)O)cn1
2 | inactive |  | inactive | 40% | 60% | inactive | 205 nM | CCN(c1ccc2c(c1)C(C)(C)CCC2(C)C)c1ccc(-c2nnn[nH]2)cn1
3 | inactive |  | inactive | 60% | 60% | inactive | 5.28 nM | CCN(c1ccc2c(c1)C(C)(C)CCC2(C)C)c1ccc(C(=O)O)cn1
4 | inactive |  | inactive | 20% | 50% | inactive |  | CCN(c1ccc2c(c1)C(C)(C)CCC2(C)C)c1ccc(C(=O)NO)cn1
